Our source for the EC50 and CC50 values is patent US8536187B2 (Gilead Sciences, Inc., priority 2008, dated 2013).

Structures are written as SMILES.

Data set [1] concerns HCV replicon in human hepatoma Huh-7 cell line. Kind of data set: Anti-HCV replicon assay, EC50 (luciferase luminescence). Format: cell-based. Particulars: Hepatitis C virus, Huh-7, 72 h. In short, it runs like this:
(§1)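 Huh-7 cells carrying HCV replicon (6000/well) incubated with serially diluted compound, 0.5% DMSO final, 3 days at 37° C, 5% CO2. EC50 from luciferase luminescence after 30 min lysis/substrate at room temperature; CC50 from CellTiter-Glo luminescence after 10 min at room temperature.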
Background: Replicon systems follow genome replication, usually without infectious particles.

The nature of data set [2]: CC50 assay (CellTiter-Glo) in Huh-7 HCV replicon cells. Particulars: human. Format: cell-based. The procedure, abridged:
as §1

A word on the EC50: it is the concentration needed to bring the measured effect to its halfway point. Low values mean a more potent agent, high ones a less potent agent. One may read the CC50 as the concentration at which the toxic effect on the cells reaches its halfway point. Low values mean greater toxicity to the cells, high ones lower toxicity to the cells. Compound `NS(=O)(=O)c1ccc(CNc2nc(NC3(C(F)(F)F)CC3)c3nc(-c4cccc(N5CCCS5(=O)=O)c4)ccc3n2)cc1` [Example 51, 4-((6-(3-(1,1-dioxo-isothiazolidin-2-yl)phenyl)-4-(1-(trifluoromethyl)cyclopropyl-amino)pyrido[3,2-d]pyrimidin-2-ylamino)methyl)benzene-sulfonamide] came in with an EC50 in data set [1] of 250 to 2000 nM. Also, the CC50 at 3 days in data set [2] (Table 2, 3 days incubation) fell in the range of 1000 to 10000 nM.

In data set [1], `C=Cc1ccc2nc(NCc3cc(Cl)cc(S(N)(=O)=O)c3)nc(OC3(C)CC3)c2n1` [Example 303, 3-chloro-5-((4-(1-methylcyclo-propoxy)-6-vinylpyrido[3,2-d]pyrimidin-2-ylamino)methyl) benzenesulfonamide] registered an EC50 of 100 to 250 nM. Moreover, the CC50 at 3 days in data set [2] (Table 2, 3 days incubation) was over 10000 nM.

In turn, `CS(=O)(=O)c1cc(-c2ccc3nc(NCc4ccc(-n5cncn5)cc4)nc(O[C@@H]4C[C@@H]5C[C@@H]5C4)c3n2)ccc1OC(F)F` [Example 195, N-(4-(1H-1,2,4-triazol-1-yl)benzyl)-4-((1S,3r,5R)-bicyclo[3.1.0]hexan-3-yloxy)-6-(4-(difluoromethoxy)-3-(methylsulfonyl)phenyl)pyrido [3,2-d]pyrimidin-2-amine] returned an EC50 in data set [1] of under 100 nM. In data set [2] (Table 2, 3 days incubation), this compound showed a CC50 at 3 days of 1000 to 10000 nM.

The compound `C[C@@H](Nc1nc(OC2CCC2)c2nc(C#CC3CC3)ccc2n1)c1ccc(S(N)(=O)=O)cc1` [Example 305, (R)-4-(1-(4-cyclobutoxy-6-(2-cyclopropylethynyl)pyrido [3,2-d]pyrimidin-2-ylamino)ethyl)benzenesulfonamide] had an EC50 in data set [1] of under 100 nM. Besides, the CC50 at 3 days in data set [2] (Table 2, 3 days incubation) was over 10000 nM.

As for `c1ncn(-c2ccc(CNc3nc(OC4CC4)c4nc(-c5ccc(OC6CC6)nc5)ccc4n3)cc2)n1` [Example 248, N-(4-(1H-1,2,4-triazol-1-yl)benzyl)-4-cyclopropoxy-6-(6-cyclopropoxypyridin-3-yl)pyrido[3,2-d]pyrimidin-2-amine], the EC50 in data set [1] was under 100 nM. In data set [2] (Table 2, 3 days incubation), this compound displayed a CC50 at 3 days of 1000 to 10000 nM.

In data set [1], `CC1(Oc2nc(NCc3ccc(-n4cncn4)cc3)nc3ccc(-c4cccc(S(C)(=O)=O)c4)nc23)CC1` [Example 189, N-(4-(1H-1,2,4-triazol-1-yl)benzyl)-4-(1-methylcyclo-propoxy)-6-(3-(methylsulfonyl)phenyl)pyrido[3,2-d]pyrimidin-2-amine] yielded an EC50 of under 100 nM. The same compound gave a CC50 at 3 days in data set [2] (Table 2, 3 days incubation) of 1000 to 10000 nM.

Compound `NS(=O)(=O)c1ccc(CNc2nc(NCC(F)(F)F)c3nc(-c4ccc(F)cc4)ccc3n2)cc1F` [Example 3, 2-Fluoro-4-{[6-(4-fluoro-phenyl)-4-(2,2,2-trifluoro-ethylamino)-pyrido[3,2-d]pyrimidin-2-ylamino]-methyl}-benzenesulfonamide] displayed a 50% effective concentration (EC50) in data set [1] of 250 to 2000 nM. In addition, the CC50 at 3 days in data set [2] (Table 1, 3 days incubation) was over 25000 nM.

Regarding `C[C@@H](Nc1nc(NC2(C(F)(F)F)CC2)c2nc(C#CC3CC3)ccc2n1)c1ccc(S(N)(=O)=O)cc1` [Example 69, (R)-4-(1-(6-(2-cyclopropylethynyl)-4-(1-(trifluoromethyl)cyclopropyl-amino)pyrido[3,2-d]pyrimidin-2-ylamino)ethyl)benzene-sulfonamide], the EC50 in data set [1] was under 100 nM. In data set [2] (Table 2, 3 days incubation), this compound gave a CC50 at 3 days of over 10000 nM.

`NS(=O)(=O)c1cccc(CNc2nc(NC3(C(F)(F)F)CC3)c3nc(-c4ccc(F)cc4)ccc3n2)c1` [Example 116, 3-((6-(4-fluorophenyl)-4-(1-(trifluoromethyl)cyclopropyl-amino)pyrido[3,2-d]pyrimidin-2-ylamino)methyl)benzene-sulfonamide] displayed an EC50 in data set [1] of under 100 nM. For the same compound, the CC50 at 3 days in data set [2] (Table 2, 3 days incubation) was over 10000 nM.

On to `COc1ccc(-c2ccc3nc(NCc4ccc(F)c(F)c4)nc(NC4(C(F)(F)F)CC4)c3n2)cc1S(C)(=O)=O` [Example 44, N^2-(3,4-difluorobenzyl)-6-(4-methoxy-3-(methylsulfonyl)phenyl)-N^4-(1-(trifluoromethyl)cyclopropyl)pyrido[3,2-d] pyrimidine-2,4-diamine], for which, in data set [1], the EC50 was under 100 nM. Besides, the CC50 at 3 days in data set [2] (Table 2, 3 days incubation) lay in the range of 1000 to 10000 nM.

In data set [1], `CS(=O)(=O)c1cc(-c2ccc3nc(NCc4ccc(S(N)(=O)=O)cc4)nc(NCC(F)(F)F)c3n2)ccc1OC(F)F` [Example 164, 4-((6-(4-(difluoromethoxy)-3-(methylsulfonyl)phenyl)-4-(2,2,2-trifluoroethylamino)pyrido[3,2-d]pyrimidin-2-ylamino)methyl)benzene-sulfonamide] returned an EC50 of under 100 nM. The compound further had a CC50 at 3 days in data set [2] (Table 2, 3 days incubation) of over 10000 nM.

In data set [1], `NS(=O)(=O)c1ccc(CNc2nc(NC3(C(F)(F)F)CC3)c3nc(-c4ccc(N5CCCS5(=O)=O)cc4)ccc3n2)cc1` [Example 130, 4-((6-(4-(1,1-dioxo-isothiazolidin-2-yl)phenyl)-4-(1-(trifluoromethyl)cyclopropyl-amino)pyrido[3,2-d]pyrimidin-2-ylamino)methyl)benzene-sulfonamide] displayed an EC50 of under 100 nM. The compound further came in with a CC50 at 3 days in data set [2] (Table 2, 3 days incubation) of under 1000 nM.

As for `C[C@@H](Nc1nc(NCC(F)(F)F)c2nc(-c3cccc(S(C)(=O)=O)c3)ccc2n1)c1ccc(S(=O)(=O)NC(C)(C)C)cc1` [Example 136, N-tert-butyl-4-((R)-1-(6-(3-(methylsulfonyl)phenyl)-4-(2,2,2-trifluoroethylamino)pyrido[3,2-d]pyrimidin-2-ylamino)ethyl)benzene-sulfonamide], in data set [1], the EC50 was under 100 nM. The compound also registered a CC50 at 3 days in data set [2] (Table 2, 3 days incubation) of over 10000 nM.

`COCCNc1nc(NCC(F)(F)F)c2nc(-c3ccc(OC)c(S(C)(=O)=O)c3)ccc2n1` [Example 153, 6-(4-methoxy-3-(methylsulfonyl)phenyl)-N^2-(2-methoxyethyl)-N^4-(2,2,2-trifluoroethyl)pyrido[3,2-d] pyrimidine-2,4-diamine] registered an EC50 in data set [1] of under 100 nM. The CC50 at 3 days in data set [2] (Table 2, 3 days incubation) is over 10000 nM.

In data set [1], `COc1ccc(-c2ccc3nc(N[C@H](C)c4ccc(-n5cncn5)cc4)nc(NCC(F)(F)F)c3n2)cc1S(C)(=O)=O` [Example 150, N^2-((R)-1-(4-(1H-1,2,4-triazol-1-yl)phenyl)ethyl)-6-(4-methoxy-3-(methylsulfonyl)phenyl)-N^4-(2,2,2-trifluoroethyl) pyrido[3,2-d]pyrimidine-2,4-diamine] gave an EC50 of under 100 nM. The compound also showed a CC50 at 3 days in data set [2] (Table 2, 3 days incubation) of 1000 to 10000 nM.

Compound `C#Cc1ccc2nc(N[C@H](C)c3ccc(S(N)(=O)=O)cc3)nc(O[C@@H]3C[C@@H]4C[C@@H]4C3)c2n1` [Example 314, 4-((R)-1-(4-((1S,3r,5R)-bicyclo[3.1.0]hexan-3-yloxy)-6-ethynylpyrido[3,2-d]pyrimidin-2-ylamino)ethyl) benzenesulfonamide] gave an EC50 in data set [1] of under 100 nM. This compound also came in with a 50% cytotoxic concentration (CC50) at 3 days in data set [2] (Table 2, 3 days incubation) of over 10000 nM.

Compound `COc1ccc(-c2ccc3nc(N[C@H](C)c4ccc(S(N)(=O)=O)cc4)nc(NCC(F)(F)F)c3n2)cc1S(C)(=O)=O` [Example 145, 4-((R)-1-(6-(4-methoxy-3-(methylsulfonyl)phenyl)-4-(2,2,2-trifluoroethylamino)pyrido[3,2-d]pyrimidin-2-ylamino)ethyl)benzene-sulfonamide] showed an EC50 in data set [1] of 100 to 250 nM. The CC50 at 3 days in data set [2] (Table 2, 3 days incubation) was in the range of 1000 to 10000 nM.

As to `CC(C)Oc1ccc(-c2ccc3nc(N[C@H](C)Cn4cncn4)nc(NCC(F)(F)F)c3n2)cn1` [Example 241, N^2-((R)-1-(1H-1,2,4-triazol-1-yl)propan-2-yl)-6-(6-isopropoxypyridin-3-yl)-N^4-(2,2,2-trifluoroethyl)pyrido [3,2-d]pyrimidine-2,4-diamine], in data set [1], the EC50 was under 100 nM. The compound also showed a cytotoxic concentration (CC50) at 3 days in data set [2] (Table 2, 3 days incubation) of over 10000 nM.

In data set [1], `NS(=O)(=O)c1cc(Cl)cc(CNc2nc(NC3(C(F)(F)F)CC3)c3nc(-c4ccc(F)nc4)ccc3n2)c1` [Example 90, 3-chloro-5-((6-(6-fluoropyridin-3-yl)-4-(1-(trifluoromethyl)cyclopropyl-amino)pyrido[3,2-d]pyrimidin-2-ylamino)methyl)benzene-sulfonamide] displayed an EC50 of under 100 nM. The CC50 at 3 days in data set [2] (Table 2, 3 days incubation) is over 10000 nM.

Regarding `C[C@H](Cn1cncn1)Nc1nc(NCC(F)(F)F)c2nc(-c3ccc(OC(F)F)c(S(C)(=O)=O)c3)ccc2n1` [Example 206, N^2-((R)-1-(1H-1,2,4-triazol-1-yl)propan-2-yl)-6-(4-(difluoromethoxy)-3-(methylsulfonyl)phenyl)-N^4-(2,2,2-trifluoroethyl) pyrido[3,2-d]pyrimidine-2,4-diamine], the EC50 in data set [1] was in the range of 250 to 2000 nM. The compound also returned a CC50 at 3 days in data set [2] (Table 2, 3 days incubation) of over 10000 nM.

`Fc1ccc(-c2ccc3nc(NCc4ccc(-n5ccnc5)cc4)nc(NC4(C(F)(F)F)CC4)c3n2)cc1` [Example 126, N^2-(4-(1H-imidazol-1-yl)benzyl)-6-(4-fluorophenyl)-N^4-(1-(trifluoromethyl)cyclopropyl)pyrido[3,2-d] pyrimidine-2,4-diamine]: the EC50 in data set [1] lay in the range of 250 to 2000 nM. Further, the CC50 at 3 days in data set [2] (Table 2, 3 days incubation) was 1000 to 10000 nM.

On to `N#Cc1cc(F)ccc1-c1ccc2nc(NCc3cc(C(F)(F)F)cc(S(N)(=O)=O)c3)nc(NC3(C(F)(F)F)CC3)c2n1` [Example 99, 3-((6-(2-cyano-4-fluorophenyl)-4-(1-(trifluoromethyl)cyclopropyl-amino)pyrido[3,2-d]pyrimidin-2-ylamino)methyl)-5-(trifluoro-methyl)benzenesulfonamide], for which the EC50 in data set [1] is under 100 nM. This compound yielded a CC50 at 3 days in data set [2] (Table 2, 3 days incubation) of 1000 to 10000 nM.

For `NS(=O)(=O)c1cc(CNc2nc(NCC(F)(F)F)c3nc(-c4ccc(F)cc4)ccc3n2)cc(C(F)(F)F)c1` [Example 8, 3-{[6-(4-Fluoro-phenyl)-4-(2,2,2-trifluoro-ethylamino)-pyrido[3,2-d]pyrimidin-2-ylamino]-methyl}-5-trifluoromethyl-benzenesulfonamide], in data set [1], the EC50 lay in the range of 250 to 2000 nM. This compound also had a CC50 at 3 days in data set [2] (Table 1, 3 days incubation) of over 25000 nM.

In the case of `Cc1ccc(-c2ccc3nc(NCc4ccc(-n5cncn5)cc4)nc(NC4(C(F)(F)F)CC4)c3n2)cc1S(N)(=O)=O` [Example 42, 5-(2-(4-(1H-1,2,4-triazol-1-yl)benzylamino)-4-(1-(trifluoromethyl)cyclopropyl-amino)pyrido[3,2-d]pyrimidin-6-yl)-2-methylbenzene-sulfonamide], the concentration for a half-maximal effect (EC50) in data set [1] was under 100 nM. This compound also yielded a CC50 at 3 days in data set [2] (Table 2, 3 days incubation) of 1000 to 10000 nM.
